# Read-outs that look alike come from different tables or passages of the source.
# What was measured:
# [1] = test system: human allogenic MLR (peripheral blood lymphocytes); experiment: human allogenic MLR-suppressive activity; type: cell-based
# Procedure: The human allogenic MLR-suppressive activity was assayed as follows:
# Human peripheral blood lymphocytes obtained by Ficoll-Paque density gradient centrifugation of normal human peripheral blood were suspended in the RPMI1640 medium supplemented with 10% FCS, placed in plastic dishes, and incubated at 37° C. in an atmosphere of 5% carbon dioxide for 2 hours. After termination of incubation, the supernatant after gentle pipetting was harvested and centrifuged (1000 rpm, for 5 minutes) to obtain plastic-nonadherent cells. The plastic-nonadherent cells were allowed to pass through a nylon-wool column to give nylon-nonadherent cells, and the concentration of the cell suspension was adjusted to 4×10^6 cells/ml by using the RPMI1640 culture medium supplemented with 10% FCS, and used as the responder cell suspension.
# The plastic-adherent cells were removed from the plastic dish by vigorous pipetting after addition of phosphate buffered saline supplemented with 5% FCS and 0.02% disodium ethylenediamine-tetraacetic acid (EDTA). The plastic-adherent cells were treated with 40 μg/ml of mitomycin C at 37° C. for 60 minutes, washed three times, and suspended to the concentration of 4×10^6 cells/ml in the RPMI1640 culture medium supplemented with 10% FCS. The resultant suspension was used as the stimulator cell suspension. Fifty μl of the responder cell suspension from the donor A or C was mixed with 50 μl of the stimulator cell suspension from the donor B or D, to which 100 μl of the test substance was added, and cultured at 37° C. in the an atmosphere 5% carbon dioxide for 5 days.
# After termination of the culture, 1.0 μCi/well of ^3 H-thymidine was added, and after 18 hours of culture, the cells were harvested by a cell-harvester. The radioactivity incorporated into the cells was measured by a liquid scintillation counter as the index of blastogenic response of lymphocytes in human allogenic MLR. The suppression of human allogenic MLR was evaluated by calculating the percent suppression by the following formula. [formula]
# [2] = test system: IL2-dependent mouse cell line CTLL-2; experiment: suppression of IL-2 induced 3H-thymidine incorporation of CTLL-2; type: cell-based; settings: for inhibition at 0.1 µg/mL / inhibition at 10 µg/mL / inhibition at 0.01 µg/mL / inhibition at 1 µg/mL: Mus musculus; for inhibition at 0.1 µg/mL / inhibition at 10 µg/mL / inhibition at 0.01 µg/mL: read-out: Suppression
# [3] = test system: IL3 production in mouse allogenic MLC; experiment: suppression of IL3 production in mouse allogenic MLC; type: cell-based
# Procedure: The supernatant of mouse allogenic MLC and the supernatant of PHA-stimulated mouse spleen cells culture were prepared in the same manner as in Experimental Example 6.
# The IL3 activity in the supernatant described above was assayed as follows: IL3-dependent mouse cell line FDC-P2 cells were suspended in the RPMI1640 culture medium supplemented with 10% FCS to the concentration of 10^5 cells/ml, and 100 μl of the suspension was added to each well of 96-well microculture plates in which 100 μl per well of the two-fold serial dilutions of the supernatant described above had been placed. After culturing at 37° C. in an atmosphere of 5% carbon dioxide for 20 hours, 0.5 μCi/well of ^3 H-thymidine was added, and cultured for further 4 hours under the same conditions. After termination of the culture, the cells were harvested by a cell harvester, and the radioactivity incorporated into the cells was measured by a liquid scintillation counter. The IL3 activity was expressed in U/ml as the titer at the concentrations at which the amount of ^3 H-thymidine incorporated was 50% of the maximum.
# [4] = test system: anti-sheep red blood cell antibody production in BALB/c mice; experiment: suppression of mouse anti-sheep red blood cell antibody production (PFC); type: in vivo; settings: Experiment 1, 4 days
# Procedure: (§1) Males 5- to 7-week-old BALB/c mice were immunized with sheep red blood cells (SRBC), and the spleen was resected three or four days later. By counting the plaque forming cells (PFC), suppressive effect on the production of the anti-sheep red blood cell antibody was examined as follows.
# (§2) BALB/c mice were immunized with SRBC (1×10^7 cells/mouse, intravenous administration), and ISP-I in the Example 1 was administered intraperitoneally for 4 consecutive days from the day of immunization. Four days after immunization (the next day of the final administration), the spleen was resected and the anti-sheep red blood cell antibody-producing cells were determined by the direct plaque method. At the same time the body weight of the mouse, wet weight of the thymus and the spleen, and numbers of spleen cells were also determined.
# as §2, with “(5×10^7” for “(1×10^7”, “the compound” for “ISP-I”, “5” for “1”, “resected,” for “resected”, “time,” for “time”
# [5] = body weight, wet weight of thymus and spleen, number of spleen cells in SRBC-immunized mice; type: in vivo, mouse; settings: for Number of spleen cells: Experiment 1; for Body weight / Wet weight spleen / Wet weight thymus: mouse, in vivo
# Procedure: as §1, §2
# as §2, with “(5×10^7” for “(1×10^7”, “the compound” for “ISP-I”, “5” for “1”, “resected,” for “resected”, “time,” for “time”
# [6] = Mus musculus, read-out: Suppression
structure (smiles),measurement,setting,value
CCCCCCC(=O)CCCCCC/C=C/CC(O)C(O)C(N)(CO)C(=O)O (centres unmarked) [Example 1],inhibition at 0.0001 µg/mL,"[1]; Homo sapiens, Lymphocyte, donor A/donor B, 0.0001 μg/ml, read-out: Suppression",51.8%
same,inhibition at 0.001 µg/mL,"[1]; Homo sapiens, Lymphocyte, donor A/donor B, 0.001 μg/ml, read-out: Suppression",77.7%
same,inhibition at 0.01 µg/mL,"[1]; Homo sapiens, Lymphocyte, donor A/donor B, 0.01 μg/ml, read-out: Suppression",73.3%
same,inhibition at 0.1 µg/mL,"[1]; Homo sapiens, Lymphocyte, donor A/donor B, 0.1 μg/ml, read-out: Suppression",79%
same,inhibition at 1 µg/mL,"[1]; Homo sapiens, Lymphocyte, donor A/donor B, 1 μg/ml, read-out: Suppression",80.1%
same,inhibition at 10 pg/mL,"[1]; Homo sapiens, Lymphocyte, donor C/donor D, 0.00001 μg/ml, read-out: Suppression",37.7%
same,inhibition at 0.0001 µg/mL,"[1]; Homo sapiens, Lymphocyte, donor C/donor D, 0.0001 μg/ml, read-out: Suppression",44%
same,inhibition at 0.001 µg/mL,"[1]; Homo sapiens, Lymphocyte, donor C/donor D, 0.001 μg/ml, read-out: Suppression",67.9%
same,inhibition at 0.01 µg/mL,"[1]; Homo sapiens, Lymphocyte, donor C/donor D, 0.01 μg/ml, read-out: Suppression",74.8%
same,inhibition at 0.1 µg/mL,"[1]; Homo sapiens, Lymphocyte, donor C/donor D, 0.1 μg/ml, read-out: Suppression",79.2%
same,inhibition at 1 µg/mL,"[1]; Homo sapiens, Lymphocyte, donor C/donor D, 1 μg/ml, read-out: Suppression",76.5%
same,inhibition at 10 µg/mL,"[1]; Homo sapiens, Lymphocyte, donor C/donor D, 10 μg/ml, read-out: Suppression",88.8%
same,IC50,"[1]; Homo sapiens, Lymphocyte, read-out: 50%-inhibition concentration (IC50)",0.1 ng/mL
same,inhibition at 10 µg/mL,"[1]; Homo sapiens, Lymphocyte, read-out: Suppression",100%
same,3H-thymidine uptake,"[1]; donor A/donor B, 0.0001 μg/ml",12769 cpm
same,3H-thymidine uptake,"[1]; donor A/donor B, 0.001 μg/ml",7190 cpm
same,3H-thymidine uptake,"[1]; donor A/donor B, 0.01 μg/ml",8138 cpm
same,3H-thymidine uptake,"[1]; donor A/donor B, 0.1 μg/ml",6922 cpm
same,3H-thymidine uptake,"[1]; donor A/donor B, 1 μg/ml",6690 cpm
same,3H-thymidine uptake,"[1]; donor A/donor B, 10 μg/ml",1082 cpm
same,3H-thymidine uptake,"[1]; donor C/donor D, 0.00001 μg/ml",10896 cpm
same,3H-thymidine uptake,"[1]; donor C/donor D, 0.0001 μg/ml",9806 cpm
same,3H-thymidine uptake,"[1]; donor C/donor D, 0.001 μg/ml",5646 cpm
same,3H-thymidine uptake,"[1]; donor C/donor D, 0.01 μg/ml",4460 cpm
same,3H-thymidine uptake,"[1]; donor C/donor D, 0.1 μg/ml",3613 cpm
same,3H-thymidine uptake,"[1]; donor C/donor D, 1 μg/ml",4167 cpm
same,3H-thymidine uptake,"[1]; donor C/donor D, 10 μg/ml",2018 cpm
same,3H-thymidine uptake,"[2]; 24 hrs, 0.01 μg/ml",6003 cpm
same,3H-thymidine uptake,"[2]; 24 hrs, 0.1 μg/ml",3722 cpm
same,3H-thymidine uptake,"[2]; 24 hrs, 1 μg/ml",3977 cpm
same,3H-thymidine uptake,"[2]; 24 hrs, 10 μg/ml",1968 cpm
same,3H-thymidine uptake,"[2]; 48 hrs, 0.01 μg/ml",19592 cpm
same,3H-thymidine uptake,"[2]; 48 hrs, 0.1 μg/ml",7324 cpm
same,3H-thymidine uptake,"[2]; 48 hrs, 1 μg/ml",4794 cpm
same,3H-thymidine uptake,"[2]; 48 hrs, 10 μg/ml",1649 cpm
same,3H-thymidine uptake,"[2]; 72 hrs, 0.01 μg/ml, control 78515 cpm",56688 cpm
same,3H-thymidine uptake,"[2]; 72 hrs, 0.1 μg/ml, control 78515 cpm",2436 cpm
same,3H-thymidine uptake,"[2]; 72 hrs, 1 μg/ml, control 78515 cpm",846 cpm
same,3H-thymidine uptake,"[2]; 72 hrs, 10 μg/ml, control 78515 cpm",478 cpm
same,inhibition at 0.1 µg/mL,"[2]; CTLL-2, 24 h",45.5%
same,inhibition at 10 µg/mL,"[2]; CTLL-2, 72 h",100%
same,inhibition at 0.01 µg/mL,"[2]; CTLL-2, 24 hrs, 0.01 μg/ml",10.3%
same,inhibition at 1 µg/mL,"[2]; CTLL-2, 24 hrs, 1 μg/ml",41.5%
same,inhibition at 10 µg/mL,"[2]; CTLL-2, 24 hrs, 10 μg/ml",72.5%
same,inhibition at 0.01 µg/mL,"[2]; CTLL-2, 48 hrs, 0.01 μg/ml",22.7%
same,inhibition at 0.1 µg/mL,"[2]; CTLL-2, 48 hrs, 0.1 μg/ml",72.2%
same,inhibition at 1 µg/mL,"[2]; CTLL-2, 48 hrs, 1 μg/ml",82.4%
same,inhibition at 10 µg/mL,"[2]; CTLL-2, 48 hrs, 10 μg/ml",95.1%
same,inhibition at 0.01 µg/mL,"[2]; CTLL-2, 72 hrs, 0.01 μg/ml, control 78515 cpm",28%
same,inhibition at 0.1 µg/mL,"[2]; CTLL-2, 72 hrs, 0.1 μg/ml, control 78515 cpm",97.7%
same,inhibition at 1 µg/mL,"[2]; CTLL-2, 72 hrs, 1 μg/ml, control 78515 cpm",99.8%
same,IL3 activity,[3]; 0.01 μg/ml,13.9 U/ml
same,IL3 activity,[3]; 0.1 μg/ml,12.1 U/ml
same,IL3 activity,[3]; 1 μg/ml,9.8 U/ml
same,IL3 activity,[3]; 10 μg/ml,< 2 U/ml
same,inhibition at 0.01 µg/mL,[3]; [6],62.2%
same,inhibition at 0.1 µg/mL,[3]; [6],67.1%
same,inhibition at 1 µg/mL,[3]; [6],73.4%
same,inhibition at 10 µg/mL,[3]; [6],> 95%
same,Number of PFC per 1 × 10^7 cell,[4]; 0.3 mg/kg/day i.p.,1.4 ± 0.4 × 10^3 /1 × 10^7 cell
same,Number of PFC per spleen,[4]; 0.3 mg/kg/day i.p.,0.9 ± 0.3 × 10^4 /spleen
same,Number of PFC per 1 × 10^7 cell,[4]; 1 mg/kg/day i.p.,0.5 ± 0.2 × 10^3 /1 × 10^7 cell
same,Number of PFC per spleen,[4]; 1 mg/kg/day i.p.,0.3 ± 0.1 × 10^4 /spleen
same,Number of PFC per 1 × 10^7 cell,[4]; 3 mg/kg/day i.p.,0.2 ± 0.1 × 10^3 /1 × 10^7 cell
same,Number of PFC per spleen,[4]; 3 mg/kg/day i.p.,0.1 ± 0.0 × 10^4 /spleen
same,Number of spleen cells,[5]; 0.3 mg/kg/day,1.4 ± 0.3 × 10^8 cell
same,Number of spleen cells,[5]; 1 mg/kg/day,1.3 ± 0.4 × 10^8 cell
same,Number of spleen cells,[5]; 3 mg/kg/day,1.3 ± 0.2 × 10^8 cell
same,Body weight,[5]; 0.3 mg/kg/day,23 ± 2 g
same,Wet weight spleen,[5]; 0.3 mg/kg/day,202 ± 4 mg
same,Wet weight thymus,[5]; 0.3 mg/kg/day,48 ± 5 mg
same,Body weight,[5]; 1 mg/kg/day,23 ± 1 g
same,Wet weight spleen,[5]; 1 mg/kg/day,206 ± 32 mg
same,Wet weight thymus,[5]; 1 mg/kg/day,50 ± 1 mg
same,Body weight,[5]; 3 mg/kg/day,19 ± 1 g
same,Wet weight spleen,[5]; 3 mg/kg/day,137 ± 17 mg
same,Wet weight thymus,[5]; 3 mg/kg/day,25 ± 14 mg
